Test [1] deals with HT-29 human colon carcinoma xenografts. Kind of test: In vivo MR molecular imaging in HT-29 xenografts. Conditions: 0.1 mmol/kg iv. Also noted: species or system mice. How it is done: In vivo molecular imaging of fibrin-fibronectin complexes in tumor with the targeted contrast agent and MRI was evaluated in female athymic nu/nu mice bearing HT-29 human colon carcinoma xenografts with a T1-weighted 2D spin-echo sequence. A clinical contrast agent, Gd(DTPA-BMA), was used as a control. Competitive targeting of free CLT1 peptide to CLT1-(Gd-DTPA) was also studied with coinjection of CLT1-(Gd-DTPA) and a 3-fold excess of free CLT1 peptide. A group of 3 mice were used for each contrast agent. The mice were anesthetized by intramuscular administration of a mixture of ketamine (45 mg/kg) and xylazine (6 mg/kg) for MRI. The CLT1-(Gd-DTPA) and Gd(DTPA-BMA) was intravenously injected at a dose of 0.1 mmol/kg. Contrast enhanced MR images were acquired before and after injection at 1, 10, 20, 30 and 60 minutes on a Siemens Trio 3T scanner using a human wrist coil. High resolution 3D images were acquired with a 3D FLASH sequence with 25° flip angel, TR/TE=7.8/2.7 ms, slice thickness 0.5 mm, field of view (FOV) 120 mm, voxel size 0.5×0.5×0.5 mm T1-weighted 2D axial tumor images were acquired with a 2D spin echo sequence with TR 400 ms, TE 10 ms, 90° tip angel and FOV 50 mm Mice were sacrificed 24 hours post-injection and tumor tissues were cut and fixed with 3% paraformaldehyde and embedded in paraffin. Tissue sections (4-μm thickness) were incubated in 3% H2O2 for 10 minutes to block endogenous peroxidase activity and boiled in antigen retrieval solution for 15 minutes in microwave. The sections were then incubated with primary antibody overnight and secondary antibody the second day for visualization using the ABC kit (Santa Cruz Biotechnology).
MR signal intensity was also measured and the contrast to noise ratio (CNR) in the tumor tissues was calculated as CNR=(SItissue−SImuscle)/SDnoise.

Test [2] has as its system MDA-MB-231 human breast carcinoma xenografts. Briefly: In vivo MR molecular imaging in MDA-MB-231 xenografts. Also noted: species or system mice.
Where [3] appears, read: up to 60 minutes post-injection.

Consider `CNC(=O)CN(CCN(CCN(CC(=O)[O-])CC(=O)NC)CC(=O)[O-])CC(=O)[O-].[Gd+3]` [Gd(DTPA-BMA)], for which the “tumor enhancement compared with CLT1-(Gd-DTPA)” value in test [1] is recorded as “didn't show a strong tumor enhancement”. For the same molecule, in test [1] (setting [3]), the “CNR time course, tumor inner area” value is “decreased rapidly” and the “CNR time course, tumor periphery” value is given as “decreased rapidly”. Moreover, the “tumor enhancement (T1-weighted 2D spin-echo MRI)” value in test [2] (after 30 minutes post-injection, 0.1 mmol/kg) is on record as “decreased significantly”. Moreover, the “tumor enhancement (T1-weighted 2D spin-echo MRI)” value in test [2] (first 15 minutes post-injection, CLT1-(Gd-DTPA) 0.05 mmol/kg, Gd(DTPA-BMA) 0.1 mmol/kg) was “Significant tumor enhancement”.

Values taken from patent US20110236316A1, “PEPTIDE TARGETING IMAGING AGENTS AND METHODS OF USE THEREOF” (University of Utah Research Foundation, priority 2008, published 2011).
